The values below come from US6017958A, “Method of treating malignant tumors with thyroxine analogues having no significant hormonal activity” (Octamer, Inc., priority 1997, dated 2000).

One series concerns HeLa (cervical cancer). Briefly: Cytocidal action/growth inhibition, HeLa. The settings on record: Homo sapiens, 72 h. The series is classed as cell-based. On the procedure: Seven human cancer cell lines were obtained from the American Tissue Culture Collection (Rockville, Md.) and maintained in the recommended growth media. Cells were seeded into wells (2 cm^2) at a density of 2×10^4 cells/cm^2. Various concentrations of Compounds 1-13 were added to the media at the time of seeding.
The cultures were incubated for 72 hours at 37° C. (5% CO2 atmosphere). Following incubation, cells were detached with trypsin and counted in a hemocytometer.
I100 designates the concentration at which no viable cells remained; I50 the concentration at which 50% viable cells remained, as compared to a control.
E-ras 20 cells were cultured as reported, Bauer et al., 1996, "Modification of growth related enzymatic pathways and apparent loss of tumorigenicity of a ras-transformed bovine endothelial cell line by treatment with 5-iodo-6-amino-1,2-benzopyrone (INH2 BP)" Intl. J. Oncol. 8:239-252; HT-144 (melanoma), DU-145 (prostatic cancer), HeLa (cervical cancer), HL 60 (promyelocytic leukemia), MDA-MB-231 (mammary cancer), SK-Br-3 (mammary cancer), T47D (ductal mammary cancer), A559 (lung cancer) were obtained from American Type Culture Collection (Rockville, Md.) and cultured in prescribed media. The effect of DIME was tested in cultures with a starting cell density of 2×10^4 cells per cm^2 and comparison of the effect of DIME on cell growth (intact cells identified by Trypan blue exclusion) was assayed by direct cell counting after trypsinization in a hemocytometer 72 hours after drug addition.
For DIME-exposure experiments cells were seeded into 2 cm^2 wells at a density of 2×10^4 cells/cm^2. DIME at various concentrations was added to the medium at the time of seeding. The cell cultures were then incubated for 3 days (37° C. in 5% at CO2 atmosphere).

A further series has as its system CV-1 cells. Briefly: cells. The series is classed as in vitro ADME. The settings on record: Cercopithecidae; CV-1, 24 hours; read-out: Extracellular DIME (concentration that causes 100% growth inhibition). On the procedure:
Monolayer cultures in 9.6 cm^2 wells (3 ml medium) were exposed to [^14 C]-DIME (10.55 mCi/mmol) for 24 hours, then washed 7 times with 1 ml medium containing unlabeled DIME. The cells were dissolved in 1 ml of 4% Na2 CO3 and 0.2 M NaOH and radioactivity measured by scintillation counting. Cell volume was determined by hematocrit and cell counting from parallel wells treated with unlabeled DIME.
A striking property of DIME is its apparent selectivity for tumors in vivo. We performed drug metabolism and cellular DIME uptake tests to further characterize this property. Incubation of cells in culture with [^14 DIME, under conditions described previously, Bauer et al., 1996, "Modification of growth related enzymatic pathways and apparent loss of tumorigenicity of a ras-transformed bovine endothelial cell line by treatment with 5-iodo-6-amino-1,2-benzopyrone (INH2 BP)" Intl. J. Oncol. […] As shown in Table 9 the tumorigenic transformed cells in general took up DIME more rapidly than nontransformed cells (CV-1) or cells that were less sensitive to killing-by DIME (e.g. E-ras 20). […] On the other hand homogenates of organs of normal mice actively metabolize (de-esterify) DIME as illustrated in Table 10.

Series [1] concerns protein phosphatase 2A (E-ras 20 cell nuclear extract). Briefly: Phosphatase activity, E-ras 20 cell nuclear extract. The series is classed as cell-based, bovine. On the procedure:
Compounds 1-13 were tested for protein phosphatase 2A activation in malignant tumor cell cultures in vitro according to the protocol described in Bauer et al., 1996, "Modification of Growth Related Enzymatic Pathways and Apparent Loss of Tumorigenicity of a Ras-Transformed Bovine Endothelial Cell Line by Treatment with 5-Iodo-6-Amino-1,2-Benzopyrone (INH2 BP)," International J. of Oncology 8:239-252. All other compounds were ineffective.

A short description of series [2]: Serum half-life and bioavailability of 14C-DIME. The series is classed as in vivo, mouse. How it is done:
Aliquots (50 μL) of blood were assayed in a liquid scintillation counter and data expressed as microgram-equivalents per mL. The blood level data were analyzed by the RSTRIP method (Micromath, Salt Lake City, Utah).

Series [3] relates to E-ras transformed bovine endothelial cells. Briefly: Morphology of E-ras cells. The series is classed as cell-based. On the procedure: E-ras transformed bovine endothelial cells (Bauer et al., 1996, Intl. J. Oncology 8:239-252) were exposed to 10 μM DIME for […]. The DIME-treated cells (10^5 or 10^6 cells/100 μL) were injected subcutaneously into nude mice and tumor progression followed for 25 days.
Microscopic morphology of E-ras cells was examined by techniques reported earlier, Mendeleyev et al., 1997, "Structural Specificity and Tumoricidal Action of Methyl-3,5-Diiodo-4-(4'- Methoxyphenoxy) Benzoate (DIME)," Intl. J. Oncol.,in press; Bauer et al., 1996, "Modification of Growth Related Enzymatic Pathways and Apparent Loss of Tumorigenicity of a ras-Transformed Bovine Endothelial Cell Line" by Treatment With 5-iodo-6-amino-1,2-benzopyrone (INH BP).

In a further series the test system is E-ras cells. Briefly: DNA cuts (TUNEL). In kind it is cell-based, bovine. The settings on record: 2-10 μM, 18 hours. How it is done: E-ras cells (2×10^4 cells/cm^2) were treated with DIME 18 hours prior to the TUNEL assay.
Assay for DNA cuts, as a signal for apoptosis, was via the terminal deoxynucleotidyl transferase dUTP nick end labeling (TUNEL) reaction as specified by the manufacturer of the assay kit (Boehringer Mannheim, Indianapolis, Ind., USA, Cat. No. 168-4817).

Several values for one entry are separate records, joined by “and”; a condition that tells them apart may be missing. Identical values can stand only once. Like-named read-outs stand apart in the source and are kept apart here.

With `COC(=O)c1cc(I)c(Oc2ccc(OC)cc2)c(I)c1` [Compound 1, Methyl 3,5-diiodo-4-(4'-methoxyphenoxy)benzoate], the IC50 in the series with HeLa (cervical cancer) (Table 4, read-out: I50) amounted to 600 nM; in the series on HeLa (cervical cancer) (day 3, Table 11, read-out: I50 (day 3)), 600 nM. Besides, the IC100 with HeLa (cervical cancer) (Table 4, read-out: I100 (no viable cells remained)) stood at 3.5 µM; in the series on CV-1 cells it was 2 µM. Besides, the “Phosphatase Activity” value in series [1] (50 μM DIME, untreated 29 ± 5) is 44 ± 7 fmol Pi/mg protein × min. The “activation of protein phosphatase 2A, fold” value in series [1] (50 μM, E-ras transformed cells) is “at least two-fold”. Besides, in series [2] (i.v., 24.5 mg/kg), the “i.v. serum half-life (t1/2)” value lay within 2 to 2.5 h. In series [2] (oral 126 mg/kg vs i.v. 24.5 mg/kg, listed as DIME, 126 mg/kg), the oral bioavailability was 83% and 87%. Moreover, in series [2] (serum), the “half-life (t1/2)” value lay in the range of 2 to 2.5 h. Further, in series [3] (4 μM, 18-24 hrs, E-ras 20 cells), the cell morphology entry is recorded as “tumor cells enlarged and, as especially visible at 300-fold magnification, numerous micronuclei appeared”. Moreover, the micronucleation result in series [3] (10 μM, 3 days) is on record as “induced extensive micronucleation”. Besides, the DNA breaks result with E-ras cells is on record as “drug concentration-dependent DNA breaks”.
